ChEMBL document CHEMBL1201862, “PubChem BioAssay data set” (2004)
Several values for one entry are separate records, joined by “and”; a condition that tells them apart may be missing. Identical values can stand only once.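 96-well plates; 48 h exposure; 5 concentrations. Endpoints by linear interpolation between flanking doses. Not reached: highest tested concentration assigned. GI50: concentration for 50% inhibition of growth.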 Activity calls are given as the source filed them. Cut-off read from the data, not from the text of the source: active = GI50 up to about 1.1 µM and inactive = higher.

Legend:
Assay in all cases: DTP human tumour cell line panel, 48 h
PC-3 = tested on: PC-3
RPMI-8226 = tested on: RPMI-8226
SK-MEL-2 = tested on: SK-MEL-2
KM12 = tested on: KM12
MCF7 = tested on: MCF7
HCT-116 = tested on: HCT-116
HCC 2998 = tested on: HCC 2998
HCT-15 = tested on: HCT-15
TK-10 = tested on: TK-10
A549 = tested on: A549
UACC-62 = tested on: UACC-62
HL-60 = tested on: HL-60
HOP-18 = tested on: HOP-18
MDA-N = tested on: MDA-N
DU-145 = tested on: DU-145
Hs-578T = tested on: Hs-578T
KM-20L2 = tested on: KM-20L2
SR = tested on: SR
MDA-MB-435 = tested on: MDA-MB-435
DLD-1 = tested on: DLD-1
M14 = tested on: M14
MDA-MB-231 = tested on: MDA-MB-231
BT-549 = tested on: BT-549
OVCAR-5 = tested on: OVCAR-5
HOP-62 = tested on: HOP-62
NCI/ADR-RES = tested on: NCI/ADR-RES
786-0 = tested on: 786-0
OVCAR-4 = tested on: OVCAR-4
T47D = tested on: T47D
SK-MEL-5 = tested on: SK-MEL-5
RXF 631 = tested on: RXF 631
CAKI-1 = tested on: CAKI-1
SF-295 = tested on: SF-295
OVCAR-3 = tested on: OVCAR-3
RXF 393 = tested on: RXF 393
MOLT-4 = tested on: MOLT-4
SNB-78 = tested on: SNB-78
UO-31 = tested on: UO-31
IGROV-1 = tested on: IGROV-1
M19-MEL = tested on: M19-MEL
HOP-92 = tested on: HOP-92
CCRF-CEM = tested on: CCRF-CEM
U-251 = tested on: U-251
SK-OV-3 = tested on: SK-OV-3
SF-268 = tested on: SF-268
XF498 = tested on: XF498
SF-539 = tested on: SF-539
Malme-3M = tested on: Malme-3M
NCI-H226 = tested on: NCI-H226
NCI-H522 = tested on: NCI-H522
SN12C = tested on: SN12C
SK-MEL-28 = tested on: SK-MEL-28
NCI-H460 = tested on: NCI-H460
EKVX = tested on: EKVX
LXFL 529 = tested on: LXFL 529
DMS-273 = tested on: DMS-273
UACC-257 = tested on: UACC-257
NCI-H23 = tested on: NCI-H23
SNB-19 = tested on: SNB-19
OVCAR-8 = tested on: OVCAR-8
HT-29 = tested on: HT-29
COLO 205 = tested on: COLO 205
DMS-114 = tested on: DMS-114
LOX IMVI = tested on: LOX IMVI
K562 = tested on: K562
ACHN = tested on: ACHN
SNB-75 = tested on: SNB-75
A498 = tested on: A498
SW-620 = tested on: SW-620

O=C1C(Br)=C(Br)C(=O)c2ccccc21 [2,3-Dibromo-1,4-naphthoquinone]
GI50 (PC-3): 17.5 µM (inactive)
GI50 (RPMI-8226): 3.01 µM (inactive)
GI50 (SK-MEL-2): 19.6 µM (inactive) and 10.4 µM (inactive)
GI50 (KM12): 19.6 µM (inactive) and 12.8 µM (inactive)
GI50 (MCF7): 17.5 µM (inactive)
GI50 (HCT-116): 17.9 µM (inactive) and 12.2 µM (inactive)
GI50 (HCC 2998): 21.7 µM (inactive) and 19.1 µM (inactive)
GI50 (HCT-15): 17.2 µM and 11.9 µM
GI50 (TK-10): 17.1 µM (inactive) and 12.7 µM (inactive)
GI50 (A549): 13.6 µM (inactive)
GI50 (UACC-62): 16.7 µM (inactive) and 9.71 µM (inactive)
GI50 (HL-60): 2.7 µM (inactive)
GI50 (HOP-18): 20.1 µM (inactive)
GI50 (MDA-N): 3.84 µM (inactive)
GI50 (DU-145): 18.7 µM (inactive)
GI50 (Hs-578T): 4.98 µM (inactive)
GI50 (KM-20L2): 30.2 µM (inactive) and 15.1 µM (inactive)
GI50 (SR): 2.2 µM (inactive)
GI50 (MDA-MB-435): 7.98 µM (inactive)
GI50 (DLD-1): 15.2 µM (inactive) and 18.5 µM (inactive)
GI50 (M14): 15.1 µM (inactive) and 8.77 µM (inactive)
GI50 (MDA-MB-231): 5.19 µM (inactive)
GI50 (BT-549): 4.61 µM (inactive)
GI50 (OVCAR-5): 20.5 µM (inactive) and 10.6 µM (inactive)
GI50 (HOP-62): 18.5 µM (inactive) and 21.5 µM (inactive)
GI50 (NCI/ADR-RES): 22.2 µM (inactive)
GI50 (786-0): 18.3 µM (inactive) and 9.77 µM (inactive)
GI50 (OVCAR-4): 17.1 µM (inactive) and 11.1 µM (inactive)
GI50 (T47D): 3.5 µM (inactive)
GI50 (SK-MEL-5): 10.5 µM (inactive)
GI50 (RXF 631): 5.94 µM (inactive)
GI50 (CAKI-1): 6.34 µM (inactive)

O=C1C=C(Br)C(=O)C12CCc1ccccc12 (stereo not given)
GI50 (PC-3): 17.7 µM (inactive)
GI50 (SF-295): 18.6 µM (inactive)
GI50 (OVCAR-3): 18.5 µM (inactive)
GI50 (RPMI-8226): 3.05 µM (inactive)
GI50 (RXF 393): 9.14 µM (inactive)
GI50 (SK-MEL-2): 19.6 µM (inactive)
GI50 (KM12): 21.1 µM (inactive)
GI50 (MCF7): 16.5 µM (inactive)
GI50 (MOLT-4): 2.43 µM (inactive)
GI50 (SNB-78): 22.6 µM (inactive)
GI50 (UO-31): 18.5 µM (inactive)
GI50 (IGROV-1): 20.5 µM (inactive)
GI50 (HCT-116): 10.5 µM (inactive)
GI50 (HCC 2998): 22.3 µM (inactive)
GI50 (HCT-15): 7.53 µM
GI50 (TK-10): 17.8 µM (inactive)
GI50 (M19-MEL): 19 µM (inactive)
GI50 (HOP-92): 13.5 µM (inactive)
GI50 (A549): 23.5 µM (inactive)
GI50 (CCRF-CEM): 2.66 µM (inactive)
GI50 (UACC-62): 16.8 µM (inactive)
GI50 (U-251): 21.7 µM (inactive)
GI50 (HL-60): 2.69 µM (inactive)
GI50 (HOP-18): 7.53 µM (inactive)
GI50 (SK-OV-3): 27.4 µM (inactive)
GI50 (SF-268): 22.3 µM (inactive)
GI50 (MDA-N): 16.5 µM (inactive)
GI50 (XF498): 15.3 µM (inactive)
GI50 (DU-145): 16.2 µM (inactive)
GI50 (SF-539): 17.4 µM (inactive)
GI50 (Malme-3M): 14.6 µM (inactive)
GI50 (NCI-H226): 18.3 µM (inactive)
GI50 (NCI-H522): 3.36 µM (inactive)
GI50 (SN12C): 17.3 µM (inactive)
GI50 (SK-MEL-28): 12.2 µM (inactive)
GI50 (Hs-578T): 35.3 µM (inactive)
GI50 (NCI-H460): 22.6 µM (inactive)
GI50 (KM-20L2): 26.7 µM (inactive)
GI50 (EKVX): 25.4 µM (inactive)
GI50 (SR): 3.27 µM (inactive)
GI50 (MDA-MB-435): 14.7 µM (inactive)
GI50 (DLD-1): 9.48 µM (inactive)
GI50 (M14): 12.4 µM (inactive)
GI50 (LXFL 529): 4.45 µM (inactive)
GI50 (MDA-MB-231): 28.4 µM (inactive)
GI50 (DMS-273): 18.3 µM (inactive)
GI50 (BT-549): 17.9 µM (inactive)
GI50 (OVCAR-5): 18 µM (inactive)
GI50 (HOP-62): 39 µM (inactive)
GI50 (NCI/ADR-RES): 27.7 µM (inactive)
GI50 (786-0): 11.9 µM (inactive)
GI50 (UACC-257): 19.4 µM (inactive)
GI50 (NCI-H23): 19.7 µM (inactive)
GI50 (SNB-19): 32.9 µM (inactive)
GI50 (OVCAR-8): 14.9 µM (inactive)
GI50 (HT-29): 14.8 µM (inactive)
GI50 (COLO 205): 4.05 µM (inactive)
GI50 (OVCAR-4): 24.7 µM (inactive)
GI50 (DMS-114): 20.7 µM (inactive)
GI50 (T47D): 17.8 µM (inactive)
GI50 (LOX IMVI): 12.5 µM (inactive)
GI50 (K562): 2.52 µM (inactive)
GI50 (SK-MEL-5): 19.7 µM (inactive)
GI50 (CAKI-1): 6.47 µM (inactive)
GI50 (ACHN): 11.5 µM (inactive)
GI50 (SNB-75): 13.6 µM (inactive)
GI50 (A498): 4.61 µM (inactive)
GI50 (SW-620): 4.4 µM (inactive)

CCCCCCCCCCCCCCCCCC(=O)O[C@H](COC(=O)CCCCCCCCCCC)COC(=O)CCCCCCCCCCCCCCC
GI50 (SF-295): > 100 µM (inactive)
GI50 (OVCAR-3): > 100 µM (inactive)
GI50 (RPMI-8226): > 100 µM (inactive)
GI50 (MOLT-4): > 100 µM (inactive)
GI50 (UO-31): > 100 µM (inactive)
GI50 (IGROV-1): > 100 µM (inactive)
GI50 (HCT-116): > 100 µM (inactive)
GI50 (HCC 2998): > 100 µM (inactive)
GI50 (HCT-15): > 100 µM
GI50 (TK-10): > 100 µM (inactive)
GI50 (M19-MEL): > 100 µM (inactive)
GI50 (HOP-92): > 100 µM (inactive)
GI50 (A549): > 100 µM (inactive)
GI50 (CCRF-CEM): > 100 µM (inactive)
GI50 (UACC-62): > 100 µM (inactive)
GI50 (U-251): > 100 µM (inactive)
GI50 (HL-60): > 100 µM (inactive)
GI50 (HOP-18): > 100 µM (inactive)
GI50 (SK-OV-3): > 100 µM (inactive)
GI50 (SF-268): > 100 µM (inactive)
GI50 (Malme-3M): > 100 µM (inactive)
GI50 (NCI-H226): > 100 µM (inactive)
GI50 (SN12C): > 100 µM (inactive)
GI50 (SK-MEL-28): > 100 µM (inactive)
GI50 (NCI-H460): > 100 µM (inactive)
GI50 (KM-20L2): > 100 µM (inactive)
GI50 (SR): > 100 µM (inactive)
GI50 (DLD-1): > 100 µM (inactive)
GI50 (M14): > 100 µM (inactive)
GI50 (LXFL 529): > 100 µM (inactive)
GI50 (DMS-273): > 100 µM (inactive)
GI50 (OVCAR-5): > 100 µM (inactive)
GI50 (HOP-62): > 100 µM (inactive)
GI50 (786-0): > 100 µM (inactive)
GI50 (UACC-257): > 100 µM (inactive)
GI50 (NCI-H23): > 100 µM (inactive)
GI50 (SNB-19): > 100 µM (inactive)
GI50 (OVCAR-8): > 100 µM (inactive)
GI50 (HT-29): > 100 µM (inactive)
GI50 (COLO 205): > 100 µM (inactive)
GI50 (OVCAR-4): > 100 µM (inactive)
GI50 (DMS-114): > 100 µM (inactive)
GI50 (LOX IMVI): > 100 µM (inactive)
GI50 (K562): > 100 µM (inactive)
GI50 (SK-MEL-5): > 100 µM (inactive)
GI50 (RXF 631): > 100 µM (inactive)
GI50 (CAKI-1): > 100 µM (inactive)
GI50 (ACHN): > 100 µM (inactive)
GI50 (A498): > 100 µM (inactive)
GI50 (SW-620): > 100 µM (inactive)
